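96-well plates; 48 h exposure; 5 concentrations. Endpoints by linear interpolation between flanking doses. Not reached: highest tested concentration assigned. At the GI50, growth is halved.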 Calls of active or inactive are those of the source. Rule as the data show it: active = GI50 up to about 1.1 µM and inactive = higher.
What was measured:
Assay in all cases: DTP human tumour cell line panel, 48 h
786-0 = tested on: 786-0
A498 = tested on: A498
A549 = tested on: A549
ACHN = tested on: ACHN
CAKI-1 = tested on: CAKI-1
CCRF-CEM = tested on: CCRF-CEM
COLO 205 = tested on: COLO 205
DLD-1 = tested on: DLD-1
DMS-114 = tested on: DMS-114
DMS-273 = tested on: DMS-273
EKVX = tested on: EKVX
HCT-116 = tested on: HCT-116
HCT-15 = tested on: HCT-15
HL-60 = tested on: HL-60
HOP-18 = tested on: HOP-18
HOP-62 = tested on: HOP-62
HT-29 = tested on: HT-29
IGROV-1 = tested on: IGROV-1
K562 = tested on: K562
KM-20L2 = tested on: KM-20L2
KM12 = tested on: KM12
LXFL 529 = tested on: LXFL 529
M14 = tested on: M14
M19-MEL = tested on: M19-MEL
MOLT-4 = tested on: MOLT-4
Malme-3M = tested on: Malme-3M
NCI-H226 = tested on: NCI-H226
NCI-H23 = tested on: NCI-H23
NCI-H460 = tested on: NCI-H460
NCI-H522 = tested on: NCI-H522
OVCAR-3 = tested on: OVCAR-3
OVCAR-4 = tested on: OVCAR-4
OVCAR-5 = tested on: OVCAR-5
OVCAR-8 = tested on: OVCAR-8
RPMI-8226 = tested on: RPMI-8226
RXF 393 = tested on: RXF 393
RXF 631 = tested on: RXF 631
SF-268 = tested on: SF-268
SF-295 = tested on: SF-295
SF-539 = tested on: SF-539
SK-MEL-28 = tested on: SK-MEL-28
SK-MEL-2 = tested on: SK-MEL-2
SK-MEL-5 = tested on: SK-MEL-5
SK-OV-3 = tested on: SK-OV-3
SN12C = tested on: SN12C
SNB-19 = tested on: SNB-19
SNB-75 = tested on: SNB-75
SNB-78 = tested on: SNB-78
SR = tested on: SR
SW-620 = tested on: SW-620
TK-10 = tested on: TK-10
U-251 = tested on: U-251
UACC-257 = tested on: UACC-257
UACC-62 = tested on: UACC-62
UO-31 = tested on: UO-31
XF498 = tested on: XF498
HCC 2998 = tested on: HCC 2998
HOP-92 = tested on: HOP-92
LOX IMVI = tested on: LOX IMVI

## O=[N+]([O-])c1nccn1CC(O)CN1CC1 (stereo not drawn)
786-0
  GI50: 65.6 µM (inactive)
A498
  GI50: > 100 µM (inactive)
A549
  GI50: > 100 µM (inactive)
ACHN
  GI50: 29.1 µM (inactive)
CAKI-1
  GI50: 39 µM (inactive)
CCRF-CEM
  GI50: 24.7 µM (inactive)
COLO 205
  GI50: 44.6 µM (inactive)
DLD-1
  GI50: 69.3 µM (inactive)
DMS-114
  GI50: 50.7 µM (inactive)
DMS-273
  GI50: 27.4 µM (inactive)
EKVX
  GI50: > 100 µM (inactive)
HCT-116
  GI50: 47.6 µM (inactive)
HCT-15
  GI50: 58.6 µM
HL-60
  GI50: 24.8 µM (inactive)
HOP-18
  GI50: > 100 µM (inactive)
HOP-62
  GI50: 74.3 µM (inactive)
HT-29
  GI50: 56.6 µM (inactive)
IGROV-1
  GI50: 71.3 µM (inactive)
K562
  GI50: 46 µM (inactive)
KM-20L2
  GI50: 61.2 µM (inactive)
KM12
  GI50: 66.8 µM (inactive)
LXFL 529
  GI50: 79.4 µM (inactive)
M14
  GI50: > 100 µM (inactive)
M19-MEL
  GI50: 63.4 µM (inactive)
MOLT-4
  GI50: 32 µM (inactive)
Malme-3M
  GI50: > 100 µM (inactive)
NCI-H226
  GI50: 94 µM (inactive)
NCI-H23
  GI50: 36.4 µM (inactive)
NCI-H460
  GI50: 27.6 µM (inactive)
NCI-H522
  GI50: 21.5 µM (inactive)
OVCAR-3
  GI50: 25.5 µM (inactive)
OVCAR-4
  GI50: 74.5 µM (inactive)
OVCAR-5
  GI50: > 100 µM (inactive)
OVCAR-8
  GI50: 37.8 µM (inactive)
RPMI-8226
  GI50: 49.4 µM (inactive)
RXF 393
  GI50: 25.5 µM (inactive)
RXF 631
  GI50: 40 µM (inactive)
SF-268
  GI50: 91.6 µM (inactive)
SF-295
  GI50: > 100 µM (inactive)
SF-539
  GI50: 55.6 µM (inactive)
SK-MEL-28
  GI50: > 100 µM (inactive)
SK-MEL-2
  GI50: 41.6 µM (inactive)
SK-MEL-5
  GI50: 71.8 µM (inactive)
SK-OV-3
  GI50: 35.1 µM (inactive)
SN12C
  GI50: 61.8 µM (inactive)
SNB-19
  GI50: > 100 µM (inactive)
SNB-75
  GI50: 42.8 µM (inactive)
SNB-78
  GI50: 78 µM (inactive)
SR
  GI50: 27.2 µM (inactive)
SW-620
  GI50: 63.8 µM (inactive)
TK-10
  GI50: > 100 µM (inactive)
U-251
  GI50: 35.6 µM (inactive)
UACC-257
  GI50: 83.9 µM (inactive)
UACC-62
  GI50: 44.8 µM (inactive)
UO-31
  GI50: 37.8 µM (inactive)
XF498
  GI50: > 100 µM (inactive)

## COc1cc2c3c(c1OC)C1(C=CC(=O)C=C1)C[C@H]3N(C)CC2 [PRONUCIFERINE]
786-0
  GI50: > 100 µM (inactive)
A549
  GI50: > 100 µM (inactive)
ACHN
  GI50: > 100 µM (inactive)
COLO 205
  GI50: > 100 µM (inactive)
DLD-1
  GI50: > 100 µM (inactive)
DMS-114
  GI50: > 100 µM (inactive)
DMS-273
  GI50: > 100 µM (inactive)
EKVX
  GI50: > 100 µM (inactive)
HCC 2998
  GI50: > 100 µM (inactive)
HCT-116
  GI50: > 100 µM (inactive)
HCT-15
  GI50: > 100 µM
HOP-18
  GI50: > 100 µM (inactive)
HOP-92
  GI50: > 100 µM (inactive)
HT-29
  GI50: > 100 µM (inactive)
IGROV-1
  GI50: > 100 µM (inactive)
KM-20L2
  GI50: > 100 µM (inactive)
KM12
  GI50: > 100 µM (inactive)
LOX IMVI
  GI50: > 100 µM (inactive)
LXFL 529
  GI50: > 100 µM (inactive)
M14
  GI50: > 100 µM (inactive)
M19-MEL
  GI50: > 100 µM (inactive)
MOLT-4
  GI50: > 100 µM (inactive)
Malme-3M
  GI50: > 100 µM (inactive)
NCI-H226
  GI50: > 100 µM (inactive)
NCI-H23
  GI50: > 100 µM (inactive)
NCI-H460
  GI50: > 100 µM (inactive)
NCI-H522
  GI50: 74.3 µM (inactive)
OVCAR-3
  GI50: > 100 µM (inactive)
OVCAR-5
  GI50: > 100 µM (inactive)
OVCAR-8
  GI50: > 100 µM (inactive)
RPMI-8226
  GI50: > 100 µM (inactive)
RXF 393
  GI50: 26 µM (inactive)
RXF 631
  GI50: > 100 µM (inactive)
SF-268
  GI50: > 100 µM (inactive)
SF-295
  GI50: > 100 µM (inactive)
SF-539
  GI50: > 100 µM (inactive)
SK-MEL-28
  GI50: > 100 µM (inactive)
SK-MEL-2
  GI50: > 100 µM (inactive)
SK-MEL-5
  GI50: > 100 µM (inactive)
SK-OV-3
  GI50: > 100 µM (inactive)
SN12C
  GI50: > 100 µM (inactive)
SNB-19
  GI50: > 100 µM (inactive)
SNB-75
  GI50: > 100 µM (inactive)
SNB-78
  GI50: > 100 µM (inactive)
SR
  GI50: > 100 µM (inactive)
SW-620
  GI50: > 100 µM (inactive)
TK-10
  GI50: > 100 µM (inactive)
U-251
  GI50: > 100 µM (inactive)
UACC-257
  GI50: > 100 µM (inactive)
UACC-62
  GI50: > 100 µM (inactive)
UO-31
  GI50: > 100 µM (inactive)
XF498
  GI50: > 100 µM (inactive)

Source: ChEMBL document CHEMBL1201862, “PubChem BioAssay data set” (2004)
